The structures appear in SMILES notation. pIC50: −log10 of the molar value.

In one experiment the target is T1, CGRP receptor (SK-N-MC cell membranes) (Homo sapiens, UniProt O60894+Q16602).
T1 construct: endogenous in cells; host or cells: SK-N-MC cells (membrane homogenate)
T1 sequence (Q16602 23-461): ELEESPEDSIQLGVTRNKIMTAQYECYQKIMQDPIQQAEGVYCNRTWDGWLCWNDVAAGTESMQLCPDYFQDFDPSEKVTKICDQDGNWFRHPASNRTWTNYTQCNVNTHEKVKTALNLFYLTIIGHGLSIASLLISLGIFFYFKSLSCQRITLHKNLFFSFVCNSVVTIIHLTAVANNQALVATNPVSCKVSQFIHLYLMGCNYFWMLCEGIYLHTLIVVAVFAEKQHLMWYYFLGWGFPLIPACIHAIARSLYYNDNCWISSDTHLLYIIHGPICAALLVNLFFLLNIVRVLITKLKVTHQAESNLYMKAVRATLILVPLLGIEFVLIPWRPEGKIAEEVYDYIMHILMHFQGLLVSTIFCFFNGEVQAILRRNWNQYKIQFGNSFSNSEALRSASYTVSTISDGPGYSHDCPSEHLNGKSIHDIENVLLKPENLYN
T1 sequence (O60894 27-148): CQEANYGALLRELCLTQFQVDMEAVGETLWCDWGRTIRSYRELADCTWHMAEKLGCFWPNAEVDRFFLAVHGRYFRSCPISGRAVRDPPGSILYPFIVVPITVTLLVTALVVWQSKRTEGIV
Put plainly: CGRP Binding Assay ([125I]-CGRP radioligand binding, SK-N-MC homogenate).
Settings: not given
As to the method:
Tissue Culture. SK-N-MC cells were grown at 37° C. in 5% CO2 as a monolayer in medium consisting of MEM with Earle's salts and L-glutamine (Gibco) supplemented with 10% fetal bovine serum (Gibco).
Cell Pellets. […] The cells were transferred from plates to polypropylene tubes (16×100 mm) and homogenized using a polytron. Homogenates were centrifuged at 32,000×g for 30 min. The pellets were resuspended in cold hypotonic lysis buffer with 0.1% mammalian protease inhibitor cocktail (Sigma) and assayed for protein concentration. The SK-N-MC homogenate was then aliquoted and stored at −80° C. until needed.
Radioligand Binding Assay. The compounds of invention were solubilized and carried through serial dilutions using 100% DMSO. Aliquots from the compound serial dilutions were further diluted 25 fold into assay buffer (50 mM Tris-Cl pH 7.5, 5 mM MgCl2, 0.005% Triton X-100) and transferred (volume 50 μl) into 96 well assay plates. […] SK-N-MC pellets were thawed, diluted in assay buffer with fresh 0.1% mammalian protease inhibitor cocktail (Sigma), and homogenized again. SK-N-MC homogenate (5 μg/well) was added in a volume of 100 μl. The assay plates were then incubated at room temperature for 2 h. Assays were stopped by addition of excess cold wash buffer (20 mM Tris-Cl pH 7.5, 0.1% BSA) immediately followed by filtration over glass fiber filters (Whatman GF/B) previously soaked in 0.5% PEI. Non-specific binding was defined with 1 μM beta-CGRP. Protein bound radioactivity was determined using a gamma or scintillation counter.
`O=C1Nc2ccccc2C2(CCN(C(=O)CC(Cc3ccc4[nH]ncc4c3)C(=O)N3CCC4(CC3)OCCO4)CC2)O1` (racemic) [Example 80, (±)-1-(1,4-Dioxa-8-aza-spiro[4.5]dec-8-yl)-2-(1H-indazol-5-ylmethyl)-4-[1′,2′-dihydro-2′-oxospiro-[4H-3′,1-benzoxazine-4,4′-piperidinyl]-butane-1,4-dione] showed a pIC50 of 6.00 to 7.00.

The experiment is the same for the next values; noted with them: displacement of [125I]-CGRP, SK-N-MC homogenate; read-out: CGRP binding IC50.
On to `O=C(O)C(Cc1ccc2[nH]ncc2c1)NC(=O)N1CCC(N2Cc3ccccc3NC2=O)CC1` (racemic) [Example 1, (±)-3-(1H-Indazol-5-yl)-2-{[4-(2-oxo-1,4-dihydro-2H-quinazolin-3-yl)-piperidine-1-carbonyl]-amino}-propionic acid], for which the pIC50 is 6.00 to 7.00.
Still for that read-out and setting: the figure for `Cc1cc(CC(NC(=O)N2CCC3(CC2)OC(=O)Nc2ccccc23)C(=O)NC2C3CC4CC(C3)CC2C4)cc2cn[nH]c12` (racemic) [Example 28, (±)-[1-(2-adamantyl-carbamoyl)-2-(7-methyl-1H-indazol-5-yl)-ethyl]-1′,2′-dihydro-2′-oxospiro-[4H-3′,1-benzoxazine-4,4′-piperidine]-1-carboxamide] is 6.00 to 7.00; for `Cc1cc(CC(NC(=O)N2CCC3(CC2)OC(=O)Nc2ccccc23)C(=O)N2CCN(c3ccncc3)CC2)cc2cn[nH]c12` (racemic) [Example 29, (±)-1′,2′-Dihydro-2′-oxospiro-[4H-3′,1-benzoxazine-4,4′-piperidine-1-carboxylic acid[1-(7-methyl-1H-indazol-5-ylmethyl)-2-oxo-2-(4-pyridin-4-yl-piperazin-1-yl)-ethyl]-amide] it is over 8.00.
The same measure, in the same setting: the figure for `Cc1cc(CC(NC(=O)N2CCC3(CC2)OC(=O)Nc2ccccc23)C(=O)NCc2ccncc2)cc2cn[nH]c12` (racemic) [Example 30, (±)-1′,2′-Dihydro-2′-oxospiro-[4H-3′,1-benzoxazine-4,4′-piperidine-1-carboxylic acid {2-(7-methyl-1H-indazol-5-yl)-1-[(pyridin-4-ylmethyl)-carbamoyl]-ethyl}-amide] is 7.00 to 8.00; for `Cc1cc(CC(NC(=O)N2CCC3(CC2)CC(=O)Nc2ccccc23)C(=O)N2CCCCC2)cc2cn[nH]c12` (racemic) [Example 32, (±)-1-(7-Methyl-1H-indazol-5-ylmethyl)-2-[1-piperidinyl]-2-oxoethyl]3′,4′-dihydro-2′-oxospiro-[piperidine-4,4′-(1H)-quinoline]-1-carboxamide] it is 6.00 to 7.00; for `Cc1cc(CC(NC(=O)N2CCC3(CC2)CC(=O)Nc2ccccc23)C(=O)N(C)C)cc2cn[nH]c12` (racemic) [Example 33, (±)-[1-Dimethylcarbmoyl-2-(7-methyl-1H-indazol-5-yl)-ethy]1-3′,4′-dihydro-2′-oxospiro-[piperidine-4,4′-(1H)-quinoline]-1-carboxamide] it is 6.00 to 7.00.
On the same count and under the same terms, the figure for `COC(=O)C(Cc1cc(Cl)c2[nH]ncc2c1)NC(=O)N1CCC(N2Cc3ccccc3NC2=O)CC1` (racemic) [Example 42, (±)-3-(7-Chloro-1H-indazol-5-yl)-2-{[4-(2-oxo-1,4-dihydro-2H-quinazolin-3-yl)-piperidine-1-carbonyl]-amino}-propionic acid methyl ester] is 6.00 to 7.00; for `CCc1cc(CC(NC(=O)N2CCC(N3Cc4ccccc4NC3=O)CC2)C(=O)OC)cc2cn[nH]c12` (racemic) [Example 44, (±)-3-(7-Ethyl-1H-indazol-5-yl)-2-{[4-(2-oxo-1,4-dihydro-2H-quinazolin-3-yl)-piperidine-1-carbonyl]-amino}-propionic acid methyl ester] it is 6.00 to 7.00.
Turning to `O=C(NC(Cn1ccc(OCc2ccccc2)cc1=O)C(=O)N1CCC(N2CCCCC2)CC1)N1CCC(N2Cc3ccccc3NC2=O)CC1` (racemic) [Example 51, (±)-4-(2-Oxo-1,4-dihydro-2H-quinazolin-3-yl)-piperidine-1-carboxylic acid[1-(4-benzyloxy-2-oxo-2H pyridin-1-ylmethyl)-2-[1,4′]bipiperidinyl-1′-yl-2-oxo-ethyl]-amide], the pIC50 was under 6.00.
On the same count and under the same terms, the figure for `O=C(NC(Cn1ccc(O)cc1=O)C(=O)N1CCC(N2CCCCC2)CC1)N1CCC(N2Cc3ccccc3NC2=O)CC1` (racemic) [Example 52, (±)-4-(2-Oxo-1,4-dihydro-2H-quinazolin-3-yl)-piperidine-1-carboxylic acid[2-[1,4′]bipiperidinyl-1′-yl-1-(4-hydroxy-2-oxo-2H-pyridin-1-ylmethyl)-2-oxo-ethyl]-amide] is under 6.00; for `O=C(NC(CN1CCC(O)CC1)C(=O)N1CCC(N2CCCCC2)CC1)N1CCC(N2Cc3ccccc3NC2=O)CC1` (racemic) [Example 53, (±)-4-(2-Oxo-1,4-dihydro-2H-quinazolin-3-yl)-piperidine-1-carboxylic acid[2-[1,4′]bipiperidinyl-1′-yl-1-(4-hydroxy-piperidin-1-ylmethyl)-2-oxo-ethyl]-amide] it is under 6.00.
For the compound `COC(=O)C(CN1Cc2cn[nH]c2C(C)(C)C1)NC(=O)N1CCC(N2Cc3ccccc3NC2=O)CC1` (racemic) [Example 55, (±)-3-(7,7-Dimethyl-1,4,6,7-tetrahydro-pyrazolo[4,3-c]pyridin-5-yl)-2-{[4-(2-oxo-1,4-dihydro-2H-quinazolin-3-yl)-piperidine-1-carbonyl]-amino}-propionic acid methyl ester], the pIC50 was 6.00 to 7.00.
For the compound `COc1ccc(CC(NC(=O)N2CCC(N3Cc4ccccc4NC3=O)CC2)C(=O)N2CCC(N3CCCCC3)CC2)cn1` (racemic) [Example 57, (±)-4-(2-Oxo-1,4-dihydro-2H-quinazolin-3-yl)-piperidine-1-carboxylic acid[2-[1,4′]bipiperidinyl-1′-yl-1-(6-methoxy-pyridin-3-ylmethyl)-2-oxo-ethyl]-amide], the pIC50 is 6.00 to 7.00.
Same read-out and setting: the figure for `COc1ncc(CC(NC(=O)N2CCC(N3Cc4ccccc4NC3=O)CC2)C(=O)N2CCC(N3CCCCC3)CC2)cn1` (racemic) [Example 58, (±)-4-(2-Oxo-1,4-dihydro-2H-quinazolin-3-yl)-piperidine-1-carboxylic acid[2-[1,4′]bipiperidinyl-1′-yl-1-(2-methoxy-pyrimidin-5-ylmethyl)-2-oxo-ethyl]-amide] is under 6.00; for `O=C(NC(Cc1ccc(OCc2ccccc2)nc1)C(=O)N1CCC(N2CCCCC2)CC1)N1CCC(N2Cc3ccccc3NC2=O)CC1` (racemic) [Example 59, (±)-4-(2-Oxo-1,4-dihydro-2H-quinazolin-3-yl)-piperidine-1-carboxylic acid[1-(6-benzyloxy-pyridin-3-ylmethyl)-2-[1,4′]bipiperidinyl-1′-yl-2-oxo-ethyl]-amide] it is 6.00 to 7.00.
Same read-out and setting: the figure for `O=C(NC(Cc1ccc(=O)[nH]c1)C(=O)N1CCC(N2CCCCC2)CC1)N1CCC(N2Cc3ccccc3NC2=O)CC1` (racemic) [Example 60, (±)-4-(2-Oxo-1,4-dihydro-2H-quinazolin-3-yl)-piperidine-1-carboxylic acid[2-[1,4′]bipiperidinyl-1′-yl-2-oxo-1-(6-oxo-1,6-dihydro-pyridin-3-ylmethyl)-ethyl]-amide] is 6.00 to 7.00; for `COC(=O)C(CC(=O)N1CCC2(CC1)OC(=O)Nc1ccccc12)Cc1cc(C)c2[nH]ncc2c1` (racemic) [Example 66, (±)-2-(7-Methyl-1H-indazol-5-ylmethyl)-4-oxo-4-[1′,2′-dihydro-2′-oxospiro-[4H-3′,1-benzoxazine-4,4′-piperidinyl]-butyric acid methyl ester] it is 6.00 to 7.00; for `O=C(C[C@H](Nc1ccc2[nH]ncc2c1)C(=O)N1CCC(N2CCCCC2)CC1)N1CCC(N2Cc3ccccc3NC2=O)CC1` (racemic) [Example 201, (±)-1-[1,4′]Bipiperidinyl-1′-yl-2-(1H-indazol-5-ylamino)-4-[4-(2-oxo-1,4-dihydro-2H-quinazolin-3-yl)-piperidin-1-yl]-butane-1,4-dione] it is 6.00 to 7.00.
Same read-out and setting: the figure for `COC(=O)C(Cc1cc(C)c2[nH]ncc2c1)NC(=O)N1CCC2(CC1)NC(=O)Nc1ccccc12` (stereo not shown) [Example 13, 3-(7-Methyl-1H-indazol-5-yl)-2-[2′,3′-dihydro-2′-oxospiro-(piperidine-4,4′-(1H)-quinazoline)carbonylamino]-propionic acid methyl ester] is 6.00 to 7.00.
With `COC(=O)C(Cc1cc(C)c2[nH]ncc2c1)NC(=O)N1CCC2(CC1)OC(=O)Nc1ccccc12` (stereo not shown) [Example 14, 3-(7-Methyl-1H-indazol-5-yl)-2-(1,2-dihydro-2-oxospiro-4H-3,1-dihydro-benzoxazine-4′4-piperidine-carbonylamino)-propionic acid methyl ester], the pIC50 was under 6.00.
For `CCCCCCCN1CCN(C(=O)C(Cc2ccc3[nH]ncc3c2)NC(=O)N2CCC(N3Cc4ccccc4NC3=O)CC2)CC1` (stereo not shown) [Example 40b], the pIC50 was 7.00 to 8.00.
Same read-out and setting: the figure for `CCCCN1CCN(C(=O)C(Cc2ccc3[nH]ncc3c2)NC(=O)N2CCC(N3Cc4ccccc4NC3=O)CC2)CC1` (stereo not shown) [Example 40c] is under 6.00; for `CCCN1CCN(C(=O)C(Cc2ccc3[nH]ncc3c2)NC(=O)N2CCC(N3Cc4ccccc4NC3=O)CC2)CC1` (stereo not shown) [Example 40d] it is 6.00 to 7.00; for `O=C(NC(Cc1ccc2[nH]ncc2c1)C(=O)N1CCN(Cc2ccco2)CC1)N1CCC(N2Cc3ccccc3NC2=O)CC1` (stereo not shown) [Example 40e] it is under 6.00.

The values above are taken from US7842808B2, “Anti-migraine spirocycles” (Bristol-Myers Squibb Company, priority 2002, dated 2010).
